Measurements as given in PubChem BioAssay (NCI).
“And” between values parts separate entries of the source, which are not always exact repeats. Identical values can stand only once.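 Results reflect a 48-hour exposure of cells in 96-well plates to compound at five concentrations. Abbreviation: GI50, concentration required for 50% inhibition of growth. The concentration for full growth arrest is given as TGI.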

Tests used:
Assay in all cases: NCI-60 cell line screen, 48 h
CCRF-CEM leukemia = system: CCRF-CEM leukemia
SW-620 colon = system: SW-620 colon
UO-31 renal = system: UO-31 renal
SN12C renal = system: SN12C renal
SF-268 CNS = system: SF-268 CNS
OVCAR-3 ovarian = system: OVCAR-3 ovarian
DMS 114 small cell lung = system: DMS 114 small cell lung
EKVX NSCLC = system: EKVX NSCLC
SR leukemia = system: SR leukemia
TK-10 renal = system: TK-10 renal

| Structure (SMILES) | TGI (CCRF-CEM leukemia) | TGI (SW-620 colon) | TGI (UO-31 renal) | TGI (SN12C renal) | TGI (SF-268 CNS) | TGI (OVCAR-3 ovarian) | TGI (DMS 114 small cell lung) | TGI (EKVX NSCLC) | TGI (SR leukemia) [µM] | TGI (TK-10 renal) | GI50 (CCRF-CEM leukemia) [µM] | GI50 (SW-620 colon) [µM] | GI50 (UO-31 renal) | GI50 (SN12C renal) | GI50 (SF-268 CNS) [µM] | GI50 (DMS 114 small cell lung) [µM] | GI50 (TK-10 renal) [µM] | GI50 (EKVX NSCLC) | GI50 (SR leukemia) [µM] | GI50 (OVCAR-3 ovarian) [µM] |
| --- | --- | --- | --- | --- | --- | --- | --- | --- | --- | --- | --- | --- | --- | --- | --- | --- | --- | --- | --- | --- |
| NC(N)=NS(=O)(=O)c1ccc(NC(=O)c2ccc(Cl)c3c(Nc4ccc(S(=O)(=O)N=C(N)N)cc4)c4ccccc4nc23)cc1 | > 100 µM | > 100 µM | > 100 µM | > 100 µM | > 100 µM | > 100 µM | > 100 µM | > 100 µM |  |  |  |  |  |  |  |  |  |  |  |  |
| C/C(=C\c1ccccc1)C(O)S(=O)(=O)O (stereo not drawn) | > 100 µM | > 100 µM | > 100 µM | > 100 µM | > 100 µM | > 100 µM | > 100 µM | > 100 µM | > 100 | > 100 µM |  |  |  |  |  |  |  |  |  |  |
| Cc1cc(Cl)ccc1N1C(=O)C(=O)C(c2nc3ccccc3s2)/C(=N\NC(=O)c2ccccc2O)C1=O (stereo not drawn) | > 100 µM | > 100 µM | > 100 µM | > 100 µM | > 100 µM | > 100 µM | > 100 µM | > 100 µM | > 100 | > 100 µM |  |  |  |  |  |  |  |  |  |  |
| CC(C)c1cccc2sc(NC(=O)C(=O)CC(=O)c3ccc(F)cc3)nc12 | > 100 µM | > 100 µM | > 100 µM | > 100 µM | > 100 µM | > 100 µM | > 100 µM | > 100 µM |  | > 100 µM |  |  |  |  |  |  |  |  |  |  |
| COc1cc(C(C)c2cc3c(cc2OCCOCCOc2cc4c(cc2C(C)c2cc(OC)c(OC)c(OC)c2)OCO4)OCO3)cc(OC)c1OC (stereo not drawn) | > 100 µM | > 100 µM | > 100 µM | > 100 µM | > 100 µM | > 10 µM | > 100 µM | > 100 µM | > 10 | > 100 µM | > 100 | > 100 | > 10 µM | > 100 µM | > 100 | > 100 | > 100 | > 100 µM |  |  |
| NCC(=O)OCN1C(=O)C2C3C=CC(C2C1=O)C1C2C(=O)N(COC(=O)CN)C(=O)C2C31 (stereo not drawn) | 52.6 µM and 49.8 µM | 44.7 µM and 54.2 µM | 97.7 µM and > 100 µM | 48.4 µM and 50.7 µM | 41.1 µM and 48.6 µM | 82.1 µM and 93.4 µM | 39 µM and 36.8 µM | > 100 µM |  | > 100 µM |  |  |  |  |  |  |  |  |  |  |
| CCOc1ccccc1N=C(NC(=O)CC)SC | > 100 µM | > 100 µM | > 100 µM | > 100 µM | > 100 µM | > 100 µM | > 10 µM | > 100 µM | > 100 | > 10 µM | > 10 | > 100 | > 100 µM | > 10 µM | > 100 |  |  | > 100 µM | > 100 | > 100 |
| CC(=O)N1C(=O)C(=O)c2cc(Cl)ccc21 |  | > 100 µM | > 100 µM | > 100 µM | > 100 µM | > 100 µM | > 100 µM | > 100 µM | > 100 | > 100 µM |  |  |  |  |  |  |  |  |  |  |
| O=C1c2ccccc2C(=O)N1C/C=N/NS(=O)(=O)c1ccc(Cl)cc1 | > 100 µM | > 100 µM | > 100 µM | > 100 µM | > 100 µM |  | > 100 µM | > 100 µM | > 100 | > 100 µM |  |  |  |  |  |  |  |  |  |  |
| CC(C)(C)c1cc2c(OP(c3ccccc3)c3ccccc3)c(c1)Cc1cc(C(C)(C)C)cc(c1OP(c1ccccc1)c1ccccc1)Cc1cc(C(C)(C)C)cc(c1OP(c1ccccc1)c1ccccc1)Cc1cc(C(C)(C)C)cc(c1OP(c1ccccc1)c1ccccc1)C2 | > 50 µM | > 50 µM | > 50 µM | > 50 µM | > 50 µM | > 50 µM | > 50 µM | > 50 µM | > 5 | > 50 µM | 44.6 | > 50 | > 50 µM | > 50 µM | > 50 | > 50 | > 50 | > 50 µM |  | > 50 |
| CCN(CC)CCNc1ccc(CO)c2sc3ccccc3c(=O)c12 |  | 17.4 µM [middle of 4 runs] | 20.9 µM [middle of 4 runs] | 20 µM [middle of 4 runs] | 16.3 µM and 21.2 µM and 20.9 µM | 20 µM [middle of 4 runs] | 27.5 µM and 23 µM | 28.7 µM [middle of 4 runs] |  | 11.4 µM and 24.9 µM |  | 4.69 | 2.09 µM and 8.51 µM | 6.55 µM [middle of 4 runs] | 3.62 |  | 2.96 | 3.92 µM and 16.2 µM | 2.29 |  |
| CCC1N2CCCCC2[C@@H]2c3[nH]c4ccccc4c3CCN12 (stereo partly drawn) | > 100 µM | > 100 µM | > 100 µM | > 100 µM | > 100 µM | > 100 µM | > 100 µM | > 100 µM |  | > 100 µM |  |  |  |  |  |  |  |  |  |  |
| CC(=O)C1C(=O)C(=O)N(c2ccc(Cl)cc2C)C1=O (stereo not drawn) | > 100 µM | > 100 µM | > 100 µM | > 100 µM | > 100 µM |  | > 100 µM | > 100 µM | > 100 | > 100 µM |  |  |  |  |  |  |  |  |  |  |
| CC(C)[C@H](COC(C)(C)C)N=CN1CSc2ccccc21 | > 100 µM | > 100 µM | > 100 µM | 84.1 µM | > 100 µM | 58.2 µM | 62.1 µM | > 100 µM |  | > 100 µM |  |  |  |  |  |  |  |  |  |  |
| CCCCCCCCCCSS(=O)(=O)c1ccc(C)cc1 |  | 33.4 µM | 29 µM | 25.1 µM | 19 µM | 33.1 µM | 30.4 µM | 27 µM | 27.8 | 37.9 µM |  |  |  |  |  |  |  |  |  |  |
| NC(CCc1nc(-c2ccccc2)cs1)C(=O)O (stereo not drawn) | > 100 µM | > 100 µM | > 100 µM | > 100 µM |  | > 100 µM | > 100 µM | > 100 µM |  | > 100 µM |  |  |  |  |  |  |  |  |  |  |
| CN1NC(c2ccccc2)=C(C#N)C(=O)CC1c1ccccc1Cl (stereo not drawn) | > 100 µM | > 100 µM |  | > 100 µM | > 100 µM |  | > 100 µM |  | > 100 | > 100 µM |  |  |  |  |  |  |  |  |  |  |
| C#Cc1cccc(N2C(=O)CC(=P(c3ccccc3)(c3ccccc3)c3ccccc3)C2=O)c1 | > 100 µM | > 100 µM | > 100 µM | > 100 µM | > 100 µM | > 100 µM | 72.6 µM | > 100 µM | > 100 | > 100 µM |  |  |  |  |  |  |  |  |  |  |
| CCCC(=O)C(CC)/C(CCC(=O)N(Cc1ccccc1)Cc1ccccc1)=N/NC(=O)C[N+](C)(C)C (stereo not drawn) | > 100 µM | > 100 µM | > 100 µM | > 100 µM | > 100 µM | > 100 µM | > 100 µM | > 100 µM | > 100 |  |  |  |  |  |  |  |  |  |  |  |
| COC(=O)/C1=C/C2CC(/C=C(/c3ccccc3)C(=O)O1)C2 | 70.5 µM | > 100 µM | > 100 µM | 64.3 µM |  | > 100 µM | 55.8 µM | > 100 µM |  | > 100 µM |  |  |  |  |  |  |  |  |  |  |
| C=CC1(C)/C(=N\O)C(C)(CC)C(=O)N1O (stereo not drawn) | > 100 µM | > 100 µM | > 100 µM | > 100 µM | > 100 µM | > 100 µM | > 100 µM | > 100 µM | > 100 | > 100 µM |  |  |  |  |  |  |  |  |  |  |
| CN1C(=O)NC2(O)c3ccccc3C(=O)C12O (stereo not drawn) | > 100 µM | > 100 µM | > 100 µM |  | > 100 µM | > 100 µM | > 100 µM | > 100 µM | > 100 | > 100 µM |  |  |  |  |  |  |  |  |  |  |
| O=C(O)c1cc2c3c(c1)[C@H]1C=CC[C@H]1CN3CC1CC=CC21 (stereo partly drawn) | > 100 µM | > 100 µM | > 100 µM | > 100 µM | > 100 µM | > 100 µM | > 100 µM | > 100 µM | > 100 | > 100 µM |  |  |  |  |  |  |  |  |  |  |
| COC(=O)c1c(C(=O)OC)c(C(=O)OC)c(C(=O)OC)c1C(=O)OC | > 100 µM | > 100 µM | > 100 µM | > 100 µM | > 100 µM | > 100 µM | > 100 µM | > 100 µM |  | > 100 µM |  |  |  |  |  |  |  |  |  |  |
| c1ccc2c(c1)[Se]c1ccccc1[Se]2 | > 100 µM | > 100 µM | > 100 µM | > 100 µM | > 100 µM | > 100 µM | > 100 µM |  | > 100 | > 100 µM |  |  |  |  |  |  |  |  |  |  |
| [O-]c1c(-c2ccccc2)[se]c(-c2ccccc2)[n+]1-c1ccccc1 | 31.8 µM | 34.2 µM | 9.84 µM | 17.9 µM | 21.6 µM | 21.9 µM | 18.7 µM | 35.4 µM |  | 20.6 µM |  |  |  |  |  |  |  |  |  |  |
